# Measured values as given in patent US20240216344A1, “THIAZOLIDINEDIONE ANALOGS FOR THE TREATMENT OF NAFLD AND METABOLIC DISEASES” (Cirius Therapeutics, Inc., priority 2019, published 2024).
# System: patients with biopsy-proven NASH with fibrosis and no cirrhosis
# Assay: EMMINENCE Phase 2b trial, liver histology at 12 months
# Assay type: in vivo, human
# Conditions: for subjects showing NAS histological improvement: PNPLA3 rs738409-G both copies (GG genotype)
# Description: embodiments, the histological features are measured by a NAFLD Activity Score (NAS). The scoring system comprised 14 histological features, 4 of which are evaluated semi-quantitatively: steatosis (0-3), lobular inflammation (0-2), hepatocellular ballooning (0-2), and fibrosis (0-4). Another nine features are recorded as present or absent. A liver biopsy of the subject is formalin-fixed and paraffin-embedded. Serial sections of the liver biopsy are hematoxylin and eosin (H&E) stained. The liver biopsy stained sections are examined for NAS scores. For example, hepatocellular ballooning is graded from 0 to 2 (0: normal hepatocytes with cuboidal shape and pink eosinophilic cytoplasm; 1: presence of clusters of hepatocytes with a rounded shape and pale cytoplasm usually reticulated. Lobular inflammation is defined as a focus of two or more inflammatory cells within the lobule. Foci are counted at 20 magnification (0: none; 1: 2 foci per 20; 2: >2 foci per 20).
# Study Design: EMMINENCE was a randomized, double-blind evaluation of three oral daily doses of MSDC-0602K (62.5 mg, 125 mg and 250 mg) or placebo given for 12 months to adult patients with biopsy-proven NASH with fibrosis and no cirrhosis. The primary efficacy endpoint was assessed at 12 months. Clinic visits were conducted at baseline, 1, 2, 3, 6, 9, and 12 months, followed 2 weeks later by a safety visit. An interim analysis of safety and efficacy not related to the primary and secondary endpoints was conducted when 6 month data were available for 328 patients (see Example 5, above.) Interim results were provided only as summary statistics to avoid any unmasking of the study team or sponsor.
# Participants: Eligible patients were at least 18 years old with NASH (NAS≥4; score ≥1 in each component [steatosis, ballooning, inflammation]) with F1 to F3 fibrosis on liver biopsy taken between 9 months prior to screening and randomization according to a central histopathologist.
# If no usable liver biopsy was available within 9 months prior to screening, a percutaneous liver biopsy was performed in patients with AST≥20 U/L and FibroScan CAP score ≥270 db/m and kPa≥8.5. Digitized slides were read by a single expert histopathologist according to NASH Clinical Research Network criteria. Baseline biopsies were read first for study qualification and a second time mixed randomly among 12-month biopsies. Fasting blood samples for routine central laboratory analyses were collected at each visit, and frozen samples collected at selected visits for biomarker assays.
# Efficacy endpoints: The primary efficacy endpoint was hepatic histological improvement in NAS defined as ≥2-point NAS decrease with a ≥1-point reduction in either ballooning or lobular inflammation and no increase in fibrosis stage at 12 months. Secondary efficacy endpoints included (1) NASH resolution defined as hepatocellular ballooning score of 0 and lobular inflammation score of 0-1 with no increase in fibrosis stage at 12 months, (2) fibrosis improvement defined as ≥1-stage decrease in fibrosis with no worsening of lobular inflammation or hepatocellular ballooning, (3) change from baseline in NAFLD activity score (NAS) and each one of its components (steatosis, lobular inflammation and ballooning) at 12 months, and (4) change from baseline in fibrosis score at 12 months. Exploratory efficacy endpoints included shifts in the central histopathologist's NASH diagnosis confirmation, and changes from baseline to 12 months in markers of glycemic control and insulin sensitivity, liver function/injury, and apoptosis and liver fibrosis.
# Using a modified intent-to-treat approach, treated patients were included for analysis in their randomly-assigned treatment groups. Participation of sites with serious GCP or quality concerns were terminated and their data excluded from the analyses. Post-baseline measures through 14 days after the last study drug dose were included. No errors in treatment assignment occurred. […]
# [1] = 125 mg and 250 mg combined vs placebo, 12 months
# [2] = 125 mg and 250 mg combined, 12 months
smiles,measurement,setting,value
COc1cccc(C(=O)COc2ccc(CC3SC(=O)NC3=O)cc2)c1 (stereo not drawn) [MSDC-0602K],confirmed NASH diagnosis at baseline (re-read) not confirmed at 12 months,62.5 mg,32.1%
same,"Fibrosis improvement, adjusted OR","62.5 mg vs placebo, 12 months",1.19
same,"Fibrosis improvement, adjusted risk difference","62.5 mg vs placebo, 12 months",0.028
same,"NAS improvement, adjusted OR","62.5 mg vs placebo, 12 months",0.89
same,"NAS improvement, adjusted risk difference","62.5 mg vs placebo, 12 months",−0.020
same,"NASH resolution, adjusted OR","62.5 mg vs placebo, 12 months",1.09
same,"NASH resolution, adjusted risk difference","62.5 mg vs placebo, 12 months",0.013
same,"Fibrosis improvement, % of patients","62.5 mg, 12 months",(23.8) %
same,"Fibrosis improvement, n/N","62.5 mg, 12 months",20/84
same,"NAS improvement (primary endpoint), n/N","62.5 mg, 12 months",25/84
same,"NASH resolution, % of patients","62.5 mg, 12 months",(20.2) %
same,"NASH resolution, n/N","62.5 mg, 12 months",17/84
same,adjusted mean difference in NAS change to 12 months vs placebo,125 mg,−0.6 points
same,adjusted mean difference in steatosis change to 12 months vs placebo,125 mg,−0.2 points
same,confirmed NASH diagnosis at baseline (re-read) not confirmed at 12 months,125 mg,26.5%
same,"Fibrosis improvement, adjusted OR",[1],1.48
same,"Fibrosis improvement, adjusted risk difference",[1],0.073
same,"NAS improvement, adjusted OR",[1],1.43
same,"NAS improvement, adjusted risk difference",[1],0.075
same,"NASH resolution, adjusted OR",[1],1.66
same,"NASH resolution, adjusted risk difference",[1],0.093
same,"Fibrosis improvement, % of patients",[2],(28.6) %
same,"Fibrosis improvement, n/N",[2],48/168
same,"NAS improvement (primary endpoint), % of patients",[2],(36.3) %
same,"NAS improvement (primary endpoint), n/N",[2],61/168
same,"NASH resolution, % of patients",[2],(29.8) %
same,"NASH resolution, n/N",[2],50/168
same,"Fibrosis improvement, adjusted OR","125 mg vs placebo, 12 months",1.45
same,"Fibrosis improvement, adjusted risk difference","125 mg vs placebo, 12 months",0.067
same,"NAS improvement, adjusted OR","125 mg vs placebo, 12 months",1.22
same,"NAS improvement, adjusted risk difference","125 mg vs placebo, 12 months",0.044
same,"NASH resolution, adjusted OR","125 mg vs placebo, 12 months",1.50
same,"NASH resolution, adjusted risk difference","125 mg vs placebo, 12 months",0.075
same,"Fibrosis improvement, % of patients","125 mg, 12 months",(28.0) %
same,"Fibrosis improvement, n/N","125 mg, 12 months",23/82
same,"NAS improvement (primary endpoint), n/N","125 mg, 12 months",27/82
same,"NASH resolution, % of patients","125 mg, 12 months",(28.0) %
same,"NASH resolution, n/N","125 mg, 12 months",23/82
same,adjusted mean difference in NAS change to 12 months vs placebo,250 mg,−0.5 points
same,adjusted mean difference in steatosis change to 12 months vs placebo,250 mg,−0.3 points
same,confirmed NASH diagnosis at baseline (re-read) not confirmed at 12 months,250 mg,30.2%
same,"Fibrosis improvement, adjusted OR","250 mg vs placebo, 12 months",1.51
same,"Fibrosis improvement, adjusted risk difference","250 mg vs placebo, 12 months",0.077
same,"NAS improvement, adjusted OR","250 mg vs placebo, 12 months",1.64
same,"NAS improvement, adjusted risk difference","250 mg vs placebo, 12 months",0.104
same,"NASH resolution, adjusted OR","250 mg vs placebo, 12 months",1.82
same,"NASH resolution, adjusted risk difference","250 mg vs placebo, 12 months",0.108
same,"Fibrosis improvement, % of patients","250 mg, 12 months",(29.1) %
same,"Fibrosis improvement, n/N","250 mg, 12 months",25/86
same,"NAS improvement (primary endpoint), n/N","250 mg, 12 months",34/86
same,"NASH resolution, % of patients","250 mg, 12 months",(31.4) %
same,"NASH resolution, n/N","250 mg, 12 months",27/86
same,subjects showing NAS histological improvement,62.5 mg,about 17.9%
same,subjects showing NAS histological improvement,250 mg,about 34.5%
